Measured values from patent publication US20260125374A1, “PI3K-ALPHA INHIBITORS AND METHODS OF MAKING AND USING THE SAME” (Relay Therapeutics, Inc., priority 2021, published 2026).
“Also recorded” adds a separate entry of the source.

Assay: Solution stability at 25° C.
Assay type: physicochemical
Conditions: for Chemical purity / Chiral purity / racemization in solution / chemical stability in solution: 25° C.; for Initial chiral purity: before dissolution; for racemization in solution / chemical stability in solution: methanol and THF/ACN (2:1, v/v), 4 mg/mL; for chemical stability in solution: at least 24 h
Method: Solution stability of I-1 Form A and I-3 Form A was investigated in methanol and THF/ACN (2:1, v/v) at 25° C. Target concentration is 4 mg/mL.
Accurate 4 mg of I-1 Form A, 5.13 mg of I-3 Form A was weighed into a 8 mL glass vial, respectively. The salt amount used is equivalent to 4 mg anhydrous free form.

[1] = MeOH, 0 h, listed as I-1 Form A
[2] = MeOH, 6 h, listed as I-1 Form A
[3] = MeOH, 24 h, listed as I-1 Form A
[4] = THF/ACN(2:1, v/v), 0 h, listed as I-1 Form A
[5] = THF/ACN(2:1, v/v), 6 h, listed as I-1 Form A
[6] = THF/ACN(2:1, v/v), 24 h, listed as I-1 Form A
[7] = MeOH, 0 h, listed as I-3 Form A
[8] = MeOH, 6 h, listed as I-3 Form A
[9] = MeOH, 24 h, listed as I-3 Form A
[10] = THF/ACN(2:1, v/v), 0 h, listed as I-3 Form A
[11] = THF/ACN(2:1, v/v), 6 h, listed as I-3 Form A
[12] = THF/ACN(2:1, v/v), 24 h, listed as I-3 Form A

`N#Cc1c(-c2cc(NC(=O)c3cc(F)cc(C(F)(F)F)c3)c3c(c2)C(=O)N[C@H]3c2cc(F)ccc2Cl)ccc2ncnn12` [Compound I-1, (R)-N-(3-(2-chloro-5-fluorophenyl)-6-(5-cyano-[1,2,4]triazolo[1,5-a]pyridin-6-yl)-1-oxoisoindolin-4-yl)-3-fluoro-5-(trifluoromethyl)benzamide] gave a Chemical purity [1] of 98.9%, a Chiral purity [1] of 98.9% and a Chemical purity [2] of 99.0%. It also gave a Chiral purity [2] of 98.9%, a Chemical purity [3] of 99.1% and a Chiral purity [3] of 98.9%. The Chemical purity [4] was 98.6%, the Chiral purity [4] was 98.9% and the Chemical purity [5] was 98.7%. It also gave a Chiral purity [5] of 98.9%, a Chemical purity [6] of 99.0% and a Chiral purity [6] of 98.9%. For the same compound, the Initial chiral purity (listed as I-1 Form A) was “Initial chiral purity: 99.0%”, the racemization in solution was “no racemization” and the “chemical stability in solution” value (listed as I-1 Form A) was “chemically stable”.

Compound `N#Cc1c(-c2cc(NC(=O)c3cc(F)cc(C(F)(F)F)c3)c3c(c2)C(=O)N[C@H]3c2cc(F)ccc2Cl)ccc2ncnn12` [Compound I-3] has a Chemical purity [7] of 99.3%, a Chiral purity [7] of 98.3% and a Chemical purity [8] of 99.3%. For the same compound, the Chiral purity [8] was 98.3%, the Chemical purity [9] was 99.4% and the Chiral purity [9] was 98.3%. The Chemical purity [10] was 99.2%, the Chiral purity [10] was 98.3% and the Chemical purity [11] was 99.3%. It also gave a Chiral purity [11] of 98.3%, a Chemical purity [12] of 99.4% and a Chiral purity [12] of 98.3%. For the same compound, the Initial chiral purity (listed as I-3 Form A) was “Initial chiral purity: 98.6%”, the racemization in solution was “no racemization” and the “chemical stability in solution” value (listed as I-3 Form A) was “chemically stable; also recorded: good solution stability”.
